Tests used:
[1] = system: Aspergillus oryzae RIB40 strain; experiment: Growth on Sabouraud Dextrose Agar containing 5-FAA and 1 mM tryptophan; assay type: cell-based
Procedure: (§1) The AotrpC-disrupted strain and Aspergillus oryzae RIB40 strain as a control were inoculated onto the plates of Sabouraud Dextrose Agar medium (BD) containing 0.12% (w/v) 5-FAA and 1 mM tryptophan, respectively. The plates were incubated at 30° C. for 4 days.
(§2) When the concentration of 5-FAA was changed to 0.1% (w/v), both the AotrpC-disrupted and RIB40 strains grew on the plates.

[2] = system: Aspergillus sojae NBRC4239 strain; experiment: Growth on potato dextrose agar containing 5-FAA and 1 mM tryptophan; assay type: cell-based
Procedure: (§3) The AstrpC-disrupted strain and Aspergillus sojae NBRC4239 strain as a control were inoculated onto the plates of potato dextrose agar medium (Nissui Pharmaceutical Co., Ltd.) containing 0.04% (w/v) 5-FAA and 1 mM tryptophan, respectively. The plates were incubated at 30° C. for 4 days. […] In addition, 5-FAA (5-fluoroanthranilic acid; Tokyo Chemical Industry Co., Ltd.) was prepared to become a 10% solution using ethanol, and the solution was added to the medium to ensure that the final concentration became the above-mentioned concentration.
(§4) When the concentration of 5-FAA was changed to 0.02% (w/v), both AstrpC-disrupted and NBRC4239 strains grew on the plates.

AstrpC-disrupted strain = experiment: as above; assay type: cell-based, Aspergillus sojae
Procedure: as §3, §4

AotrpC-disrupted strain = experiment: Growth on Sabouraud Dextrose Agar containing 5-FAA and 1 mM tryptophan; assay type: cell-based, Aspergillus oryzae
Procedure: as §1, §2

[3] = 0.12% (w/v) 5-FAA, 30° C., 4 days
[4] = 0.04% (w/v) 5-FAA, 30° C., 4 days

## Nc1ccc(F)cc1C(=O)O [5-FAA, 5-fluoroanthranilic acid]
[1]; 0.1% (w/v) 5-FAA
  growth of RIB40 strain: grew
[1]; [3]
  growth of RIB40 strain: did not grow at all
[2]; 0.02% (w/v) 5-FAA
  growth of NBRC4239 strain: grew
[2]; [4]
  growth of NBRC4239 strain: did not grow at all
AstrpC-disrupted strain; 0.02% (w/v) 5-FAA
  growth of AstrpC-disrupted strain: grew
AstrpC-disrupted strain; [4]
  growth of AstrpC-disrupted strain: grew
AotrpC-disrupted strain; 0.1% (w/v) 5-FAA
  growth of AotrpC-disrupted strain: grew
AotrpC-disrupted strain; [3]
  growth of AotrpC-disrupted strain: grew

— patent US12234466B2, “Aspergillus microorganism carrying disruptions of multiple genes and a method of producing thereof” (KIKKOMAN CORPORATION, priority 2018, dated 2025)
